In patent US20060058310A1, “Remedies for vertebral canal stenosis” (priority 2002, published 2006):
“Also recorded” adds a separate entry of the source.

System: rat of gait disturbance model by cauda equina compression
Test: Walking ability (treadmill) in rat gait disturbance model by cauda equina compression
Assay type: in vivo
Settings: spinal canal stenosis model, administered orally for 11 days after the operation, vs negative control (carboxymethylcellulose or toragacanth gum), Dunnett's test, FIG. 1 and FIG. 2
Excerpt: Improvement effect of this invented compound in a rat model of gait disturbance model by cauda equina compression:
<Method of Making an Animal Model>
A rat of gait disturbance model by cauda equina compression was made by the method of Takenobu et al. (J. Neurosci. Methods, 104(2), 191-198 (2002)). Namely, a rat was anesthetized by sodium pentobarbital, removed its dorsal hair and then was fixed its body in the prone position. After disinfection of the back with Chlorhexidine gluconate (5% Hibiten Liquid: Sumitomo Pharmaceuticals), the lumbar was incised along the midline to expose the spine. After excision of the fifth lumbar spinous process, silicon rubber 1×4×1.25 mm (height×length×width) were inserted into the fourth and the sixth lumbar spinal canals from small holes of vertebral arch which was made by mini-drill. […]
The rats were put on the running belt, and adapted to the condition where the grid was sent an electric current (0.04 mA-4 mA) for three minutes or more. […] The distance between the point to walk and the point to give up walk, in other words, the point where it is impossible for them to walk even though the stimulation (sound, contact and electricity) to make them walk was given, was measured with the mileometer built into the equipment. […] The results obtained from the compounds- and negative control-groups were analyzed by the Dunnett's multiple comparison test (*P<0.05). […]

In the case of O=C1C[C@@]2(C(=O)N1)C(=O)N(Cc1ccc(Br)cc1F)C(=O)c1cccn12 [Compound B, (R)-2-(4-bromo-2-fluorobenzyl)spiro[1,2,3,4-tetrahydropyrrolo[1,2-a]pyrazine-4,3′-pyrrolidine]-1,2′,3,5′-tetrone], the “improvement of walking dysfunction (walking distance on treadmill)” value is reported as “improved the pathology; also recorded: improved the walking dysfunction”.
